# Laboratory results from patent publication US20210340130A1, “Compositions and methods for treating attention deficit disorders” (priority 2016, published 2021).
# Like-named read-outs stand apart in the source and are kept apart here.
# Experiments:
# acetylcholine esterase = acetylcholine esterase (Homo sapiens, UniProt P22303); assay: Acetylcholine esterase functional inhibition; type: biochemical
# Swiss Webster mice = assay: PTZ Proconvulsant test; type: in vivo; settings: doses of 30 mg/kg or less, p.o.
# Procedure: Follow on studies of CX717 and 1739 are continuing, employing additional well-known models for ADHD drug efficacy, coupled with a variety of ongoing safety studies. Preliminary safety studies already completed have included a range of toxicity studies focusing on critical convulsant risks widely observed for previously-studied ampakines. Using the well known PTZ Proconvulsant test, non-GLP safety studies were conducted to examine proconvulsant activity of CX717. Swiss Webster mice (n=12/group) were dosed with CX717 (3, 10 or 30 mg/kg p.o.), vehicle (0.5% methocel p.o.) or a positive control, CGS8216 (10 mg/kg in 70% PEG300: 30% water i.p.). Thirty minutes later, the GABA-A antagonist, pentylenetetrazol (PTZ) was infused in the tail vein until tonic seizures were observed. The time at which the first clonic and tonic seizure was observed was noted and used to determine the dose of PTZ necessary to induce both clonic and tonic seizure.
# adult patients with ADHD = assay: Phase 2 randomized, double-blind, 2-period crossover trial in adults with ADHD; type: in vivo
# Procedure: *This phase 2 study evaluated the efficacy, tolerability and safety of CX717 in the treatment of adult patients with ADHD. The study was designed and executed as a randomized, double-blind, multi-center, 2-period crossover study comparing 2 doses of CX717 (200 mg, or 800 mg, BID) with placebo. Each treatment period lasted 3 weeks with a 2-week washout in between. Subjects met DSM-IV criteria for adult ADHD and had moderate to severe symptoms. The primary efficacy measure was the change from baseline on the ADHD Rating Scale (ADHD-RS) with adult ADHD prompts.
# The present study further examined the clinical efficacy, tolerability and safety of CX717 as a drug treatment for adults with ADHD. […] Each treatment period was 3 weeks in duration with a 2-week washout in between. The study design was modeled after several similarly published ADHD studies with atomoxetine and stimulants, (Spencer et al.) with sample sizes in the mid 20s. Since this is the first such study with CX7171 in ADHD, it is assumed that efficacy would be achieved using historical assumptions in effect size, therefore, a total of 60 subjects were to be randomized.
# All patients met DSM-IV criteria for adult ADHD, established by the Adult ADHD Clinical Diagnostic Scale (ACDS) Version 1.2. All patients gave written informed consent prior to enrollment and the conduct of the study was approved by either the […] Review Board (IRB) at each site or by the central IRB. Each subject had at least moderately severe ADHD symptoms (ADHD-RS score of ≥22; Clinician's Global Impression of Severity [CGI-S] score of ≥4). Each subject was male, and between 18-50 years old, inclusively. Male patients were selected because the necessary reproductive toxicology studies that would have allowed women of childbearing potential to be included in the study had not been completed.
# CX717 capsules were administered orally as 200 mg BID or 800 mg BID doses. […] The study was divided into a series of periods: screening period—up to 4 weeks, treatment period 1-3 weeks; wash-out period—2 weeks; treatment period 2-3 weeks; follow-up period—approximately 1 week.
# The primary efficacy outcome measure was the comparison of each dose of CX717 versus placebo on the change from baseline in ADHD symptoms as measured by the ADHD-RS at Week 3. Secondary efficacy parameters included comparisons of each dose of CX717 versus placebo for the ADHD-RS Inattentiveness Subscale Score of the ADHD-RS.
# Safety was evaluated by adverse events (AEs), clinical laboratory tests, vital signs, physical examination, and electrocardiograms (ECGs).
# The primary efficacy endpoint was the change from baseline in the ADHD-RS total score. Variables for the primary endpoint as well as for the secondary endpoint were based on within patient comparisons of high dose with placebo and low dose with placebo. The analyses treated subjects receiving high dose or placebo in either order as a unique entity and similarly, subjects who received low dose or placebo in either order as a unique group of its own. The primary efficacy analysis utilized the paired t-test. Descriptive statistics (number of observations, mean, standard deviation, median, minimum and maximum values) for the total score and the change from baseline were calculated by treatment group and visit and the last value was presented for both the intent-to-treat (ITT) and per protocol (PP) populations. All hypotheses testing for change from Baseline of scores, except testing for significant interaction, were performed at the 2-tailed 5% alpha significance level. P-values, based on 2-tailed tests, were rounded to 1 more decimal place than the standard deviation, up to a maximum of 3 decimal places; p-values <0.001 were presented as ‘<0.001’ in all tables.
# Rat (Lister) = assay: 5 Choice serial reaction time task; type: in vivo
# Description: Another useful animal model for evaluating ampakine activity is the Five Choice Serial Reaction Time Task in Rats. This assay requires rats to provide a single nose poke in response to a light stimulus presented in one of five locations within a 9-hole chamber. With a correct response a reward is delivered that the rat collects from the food magazine at the rear of the chamber. The withdrawal of its head from the food magazine initiates a short inter-trial interval followed by the presentation of the next randomly presented stimulus. An incorrect response results in a time out period (non-reinforcement) followed by the initiation of a new trial. Groups of 12 rats were used in this study, and all rats received all treatments using a randomized sequence. For evaluation using this model, CX1739 was selected as the exemplary low impact ampakine, administered at doses of 3 and 10 mg/kg i.p. 20 min prior to the start of the study.
# [1] = Limit of solubility (in ACSF perfusion); type: physicochemical; settings: artificial cerebral spinal fluid (ACSF), aqueous buffer, kinetic from dmso stock
# [2] = target: cytosolic testosterone receptor (Homo sapiens, UniProt P10275); assay: Radioligand binding, testosterone receptor; settings: read-out: inhibition of binding of a reference ligand
# Chain of cytosolic testosterone receptor (P10275 whole entry): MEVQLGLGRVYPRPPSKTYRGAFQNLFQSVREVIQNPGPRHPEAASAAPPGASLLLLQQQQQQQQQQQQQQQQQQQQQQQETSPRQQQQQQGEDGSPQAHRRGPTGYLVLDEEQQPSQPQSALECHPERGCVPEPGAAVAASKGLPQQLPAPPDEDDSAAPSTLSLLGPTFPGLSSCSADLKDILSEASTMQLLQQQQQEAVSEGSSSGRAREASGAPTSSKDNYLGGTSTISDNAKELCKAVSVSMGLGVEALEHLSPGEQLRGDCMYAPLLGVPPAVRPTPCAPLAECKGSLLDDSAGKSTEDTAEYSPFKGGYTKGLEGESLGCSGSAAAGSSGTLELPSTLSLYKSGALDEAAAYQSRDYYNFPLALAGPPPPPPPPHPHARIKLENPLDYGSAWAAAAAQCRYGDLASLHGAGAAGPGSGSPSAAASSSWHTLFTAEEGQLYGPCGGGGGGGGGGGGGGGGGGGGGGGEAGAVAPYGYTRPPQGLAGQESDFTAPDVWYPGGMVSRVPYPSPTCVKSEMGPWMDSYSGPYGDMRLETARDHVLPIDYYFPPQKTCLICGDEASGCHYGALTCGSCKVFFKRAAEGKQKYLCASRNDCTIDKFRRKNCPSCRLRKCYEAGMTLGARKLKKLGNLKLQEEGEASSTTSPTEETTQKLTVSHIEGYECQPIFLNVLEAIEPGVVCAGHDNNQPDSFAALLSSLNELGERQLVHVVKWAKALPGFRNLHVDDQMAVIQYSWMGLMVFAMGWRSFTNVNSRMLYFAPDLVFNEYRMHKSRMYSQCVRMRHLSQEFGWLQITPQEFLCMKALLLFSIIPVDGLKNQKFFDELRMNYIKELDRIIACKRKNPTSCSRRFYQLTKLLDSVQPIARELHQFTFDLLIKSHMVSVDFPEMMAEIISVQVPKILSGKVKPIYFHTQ
# Chain of acetylcholine esterase (P22303 32-614): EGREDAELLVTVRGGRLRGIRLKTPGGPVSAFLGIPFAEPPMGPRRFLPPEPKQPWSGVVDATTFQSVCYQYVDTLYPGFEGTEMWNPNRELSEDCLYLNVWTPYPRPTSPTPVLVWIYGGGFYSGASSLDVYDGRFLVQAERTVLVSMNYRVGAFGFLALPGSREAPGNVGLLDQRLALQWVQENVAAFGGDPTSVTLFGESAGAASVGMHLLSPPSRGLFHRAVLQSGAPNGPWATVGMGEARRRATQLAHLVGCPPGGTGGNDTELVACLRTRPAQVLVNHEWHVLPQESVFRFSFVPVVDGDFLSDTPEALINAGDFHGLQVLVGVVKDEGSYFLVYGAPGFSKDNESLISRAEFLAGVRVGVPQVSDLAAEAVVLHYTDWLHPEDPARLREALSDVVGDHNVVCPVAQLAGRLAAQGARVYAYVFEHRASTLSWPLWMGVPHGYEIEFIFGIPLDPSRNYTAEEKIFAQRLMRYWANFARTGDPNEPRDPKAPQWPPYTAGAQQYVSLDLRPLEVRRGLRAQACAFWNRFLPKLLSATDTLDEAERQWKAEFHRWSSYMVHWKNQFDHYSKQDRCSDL
structure (smiles),measurement,setting,value
"O=C(c1ccc2nonc2c1)N1CCOCC1 [CX717, 1-(benzofurazan-5-ylcarbonyl)morpholine]",Ki,acetylcholine esterase,165 µM
same,inhibition at 100 µM,acetylcholine esterase; 100 μM,53%
same,proconvulsant activity: dose of PTZ required to elicit a seizure,Swiss Webster mice,did not decrease the dose of PTZ required to elicit a seizure
same,ADHD-RS total and subscales versus placebo,adult patients with ADHD; 200 mg BID,no statistically significant differences
same,deaths or serious adverse events,adult patients with ADHD; 200 mg or 800 mg BID for 3 weeks,No deaths or serious adverse events
same,"total ADHD-RS, repeated measures analysis at endpoint","adult patients with ADHD; 800 mg BID vs placebo, p=0.002",superior efficacy compared to placebo
same,"ADHD-RS hyperactivity subscale, repeated measures analysis","adult patients with ADHD; 800 mg BID vs placebo, p=0.017",superior efficacy compared to placebo
same,"ADHD-RS inattentiveness subscale, repeated measures analysis","adult patients with ADHD; 800 mg BID vs placebo, p=0.027",superior efficacy compared to placebo
same,mean change from baseline of ADHR-RS total score,"adult patients with ADHD; 800 mg, 504 h",−9.95
same,ADHD-RS hyperactivity subscale mean difference vs placebo,"adult patients with ADHD; active dose vs. placebo, last value",1.94
same,tolerability and safety parameters,"adult patients with ADHD; either dose (200 mg or 800 mg BID), 3 weeks",well tolerated with no clinically significant changes in cardiovascular and other safety parameters
same,overall incidence of treatment-emergent adverse events (TEAEs),"adult patients with ADHD; high dose (800 mg BID), placebo high dose 56%",75%
same,ADHD-RS hyperactivity subscale mean difference vs placebo,"adult patients with ADHD; high dose, Week 1",2.00
same,ADHD-RS hyperactivity subscale mean score (change from baseline),"adult patients with ADHD; high dose, Week 1, ITT, placebo −2.22, p=0.192",−4.22
same,ADHD-RS hyperactivity subscale mean difference vs placebo,"adult patients with ADHD; high dose, Week 3",3.18
same,ADHD-RS hyperactivity subscale mean score (change from baseline),"adult patients with ADHD; high dose, Week 3, ITT, placebo −2.78, p=0.050",−5.68
same,difference from placebo in mean change of ADHR-RS total score,"adult patients with ADHD; high dose, after 3 weeks",−4.73
same,ADHD-RS hyperactivity subscale mean difference vs placebo,"adult patients with ADHD; high dose, last value",3.00
same,most frequently reported adverse events,adult patients with ADHD; in vivo,Sleep disturbances and headache
same,"ADHD-RS hyperactivity subscale versus placebo, repeated measures",adult patients with ADHD; low dose,No difference
same,ADHD-RS total score versus placebo,adult patients with ADHD; low dose (200 mg BID),did not differ from placebo
same,overall incidence of treatment-emergent adverse events (TEAEs),"adult patients with ADHD; low dose (200 mg BID), placebo low dose 55%",73%
"CN(C(=O)c1ccc2nonc2c1)C1CCOCC1 [CX1739, N-Methyl-N-tetrahydro-2H-pyran-4-yl-[2,1,3]-benzoxadiazole-5-carboxamide]",latency to correct responses,Rat (Lister); 10 mg/kg,significantly reduced
same,omissions,Rat (Lister); 10 mg/kg,significant improvement
same,accuracy of responding,Rat (Lister); 3 and 10 mg/kg ip,significantly improved
same,number of premature responses,Rat (Lister); 3 and 10 mg/kg ip,reduced
same,Minimum Effective Dose,"Rat (Lister); IP, dose range 3-10 mg/kg",3 mg/kg
same,solubility,[1]; read-out: limit of solubility,200 µM
same,solubility,[1]; read-out: limit of the drug's solubility,~200 µM
same,inhibition at 100 µM,[2],64%
